# Measurements reported in patent US20260174786A1, “A NITROGEN-CONTAINING SPIROCYCLIC COMPOUND, PHARMACEUTICAL COMPOSITION AND USE THEREOF” (Prime Gene Therapeutics Co., Ltd., priority 2022, published 2026).
# Target: T1, hTRPV3 (Homo sapiens, UniProt Q8NET8)
# T1 construct: expressed in transfected cells; host or cells: HEK-293
# T1 sequence (Q8NET8 1-790): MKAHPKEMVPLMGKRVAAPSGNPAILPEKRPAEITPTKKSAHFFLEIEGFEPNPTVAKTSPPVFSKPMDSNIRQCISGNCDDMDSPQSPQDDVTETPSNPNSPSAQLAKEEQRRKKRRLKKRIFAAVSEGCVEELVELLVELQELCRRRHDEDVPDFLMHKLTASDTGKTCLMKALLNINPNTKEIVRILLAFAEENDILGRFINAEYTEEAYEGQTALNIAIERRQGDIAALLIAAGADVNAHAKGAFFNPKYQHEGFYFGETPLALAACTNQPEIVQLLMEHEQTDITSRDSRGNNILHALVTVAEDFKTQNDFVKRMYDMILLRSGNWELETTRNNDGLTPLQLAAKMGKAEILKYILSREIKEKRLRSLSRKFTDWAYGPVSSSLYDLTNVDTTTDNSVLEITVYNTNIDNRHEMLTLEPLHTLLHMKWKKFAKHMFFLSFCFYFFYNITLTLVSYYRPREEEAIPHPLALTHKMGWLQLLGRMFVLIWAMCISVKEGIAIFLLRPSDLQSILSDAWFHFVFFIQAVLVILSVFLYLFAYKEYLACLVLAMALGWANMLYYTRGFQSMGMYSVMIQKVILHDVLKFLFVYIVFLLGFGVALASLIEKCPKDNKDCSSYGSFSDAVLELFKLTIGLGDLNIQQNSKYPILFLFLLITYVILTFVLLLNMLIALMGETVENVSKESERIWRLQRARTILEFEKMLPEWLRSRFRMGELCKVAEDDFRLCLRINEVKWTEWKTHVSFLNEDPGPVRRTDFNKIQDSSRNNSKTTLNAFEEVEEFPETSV
# Experiment: Whole cell patch clamp inhibition rate test on HEK-293 cells instantaneously expressing TRPV3
# Type: cell-based
# Conditions: HEK293; hTRPV3, single concentration 0.3 μM
# Description: In this study, HEK-293 cells instantaneously expressing TRPV3 were used for experimental detection.
# The operation steps are as follows:
# The cells were cultured in DMEM medium containing 10% fetal bovine serum at a temperature of 37° C. and a carbon dioxide concentration of 5%.
# Day 1: Cells were inoculated into a 6-well plate with 5×10^5 cells per well.
# Day 2: Transfection was performed using Lipofectamine 3000 transfection reagent, with a plasmid to transfection reagent ratio of 1 μg: 2 μL. The total amount of plasmid used per well was 3 μg. Specifically, two sterile centrifuge tubes were taken and 100 μL Opti-MEM was added to each tube. 6 μL Lipofectamine 3000 was added to one tube and mixed well; and 3 μg plasmid was added to another tube and mixed well, and then 6 μL P3000 was added and mixed well; Subsequently, the diluted plasmid DNA was added to diluted Lipofectamine 3000 and incubated at room temperature for 10-15 min. DNA liposome complex was dropped into the cells, shaked gently and mixed well, and then cultured in an incubator. The liquid was changed after 4 to 6 h.
# Day 3: The cells were digested and seeded into 24 well plates with pre-placed cover slides, with 8×10^3 cells per well.
# Day 4: Patch clamp testing was performed.
# The voltage stimulation protocol for recording TRPV3 current using whole cell patch clamp is as follows: after forming a whole cell seal, a cell membrane voltage clamp was set at −80 mV. Firstly, a membrane potential was recorded at 0 mV, and then a voltage was command to start from −100 mV, to depolarize in the form of Ramp to 100 mV within 100 ms, and finally restore to 0 mV. Data collection was repeated every 5 seconds to observe the inhibitory effect of pharmaceutical on peak current. Experimental data was collected by EPC 10 amplifier (HEKA) and stored in PatchMaster (HEKA) software.
# A microelectrode puller was used to pull the capillary glass tube into a recording electrode. The electrode filled with intracellular fluid was inserted into a microelectrode holder, and a microelectrode manipulator was operated under an inverted microscope to immerse the electrode in extracellular fluid and an electrode resistance (Rpip) was recorded. The electrode was brought into contact with the cell surface and a negative pressure suction was applied to form a high resistance seal (GΩ). At this point, a fast capacitance compensation was performed, and negative pressure was continued to apply in order to break the cell membrane, so that a whole cell recording mode was formed. Then, a slow capacitance compensation was performed and experimental parameters such as film capacitance (Cm) and series resistance (Rs) were recorded. No leakage compensation was provided.
# When the TRPV3 current recorded by the whole cell had stabilized, administration was started. Each pharmaceutical concentration acted for 5 minutes (or until the current stabilized) before detecting the next concentration. A plurality of concentrations was tested for each test compound. A cover glass covered with cells was placed in a recording bath under an inverted microscope. A blank control extracellular solution and a working fluid for the compound to be tested sequentially flowed through the recording bath from low concentration to high concentration using gravity perfusion to act on the cells. Liquid exchange was performed using a peristaltic pump during recording. The current detected by each cell in the extracellular fluid without the compound served as its own control group. Each concentration was independently tested twice using at least two cells. All electrophysiological tests were conducted at room temperature.
row,inhibition at 0.3 µM,SMILES
1,< 25%,"O=C1C[C@@]2(CCN(C(=O)c3ccc(F)cn3)C2)c2ccc(-c3ccccc3C3CC3)cc21 [Example 162, (S)-5-(2-cyclopropylphenyl)-1′-(5-fluoropyridoyl)spiro[indene-1,3′-pyrrolidine]-3(2H)-one]"
2,50 to 70%,"CCOc1ccccc1-c1ccc2c(c1)C(O)CC21CCN(C(=O)c2ccc(F)cn2)C1 (centres unmarked) [Example 86, (5-(2-ethoxyphenyl)-3-hydroxy-2,3-dihydrospiro[indene-1,3′-pyrrolidine]-1′-yl)(5-fluoropyridin-2-yl) ketone]"
3,< 25%,"CC(C)c1ccccc1-c1ccc2c(c1)C(O)CC21CCN(C(F)(F)c2ccc(F)cn2)C1 (centres unmarked) [Example 146, 1′-(difluoro(5-fluoropyridin-2-yl)methyl)-5-(2-isopropylphenyl)-2,3-dihydrospiro[indene-1,3′-pyrrolidine]-3-ol]"
4,70 to 100%,"O=C(c1ccc(C(F)(F)F)cn1)N1CCC2(CC(O)c3cc(-c4ccccc4C4CC4)ccc32)C1 (centres unmarked) [Example 50, (5-(2-cyclopropylphenyl)-3-hydroxy-2,3-dihydrospiro[indene-1,3′-pyrrolidine]-1′-yl)(5-(trifluoromethyl)pyridin-2-yl) ketone]"
5,70 to 100%,"O=C(c1csc(Cl)n1)N1CC[C@@]2(C[C@@H](O)c3cc(-c4ccccc4C4CC4)ccc32)C1 [Example 29, (2-chlorothiazol-4-yl)((1S,3R)-5-(2-cyclopropylphenyl)-3-hydroxy-2,3-dihydrospiro[indene-1,3′-pyrrolidine]-1′-yl)ketone]"
6,70 to 100%,"CC(C)c1ccccc1-c1ccc2c(c1)C(CO)CC21CCN(C(=O)c2ccc(F)cn2)C1 (centres unmarked) [Example 126, (5-fluoropyridin-2-yl)(3-(methylol)-5-(2-isopropylphenyl)-2,3-dihydrospiro[indene-1,3′-pyrrolidine]-1′-yl) ketone]"
7,< 25%,"O=C(c1cccc(C2CC2)n1)N1CC[C@@]2(C[C@H](O)c3cc(-c4ccccc4C4CC4)ccc32)C1 [Example 39, ((1S,3S)-5-(2-cyclopropylphenyl)-3-hydroxy-2,3-dihydrospiro[indene-1,3′-pyrrolidine]-1′-yl)(6-cyclopropylpyridin-2-yl) ketone]"
8,70 to 100%,"CC(C)c1ccccc1-c1ccc2c(c1)[C@H](O)C[C@@]21CCN(C(=O)c2cccc(C3CC3)n2)C1 [Example 41, (6-cyclopropylpyridin-2-yl)((1S,3R)-3-hydroxy-5-(2-isopropylphenyl)-2,3-dihydrospiro[indene-1,3′-pyrrolidine]-1′-yl)ketone]"
9,70 to 100%,"O=C(c1ccc(F)c(Cl)n1)N1CCC2(CC(O)c3cc(-c4ccccc4C4CC4)ccc32)C1 (centres unmarked) [Example 54, (6-chloro-5-fluoropyridin-2-yl)(5-(2-cyclopropylphenyl)-3-hydroxy-2,3-dihydrospiro[indene-1,3′-pyrrolidine]-1′-yl)ketone]"
10,< 25%,"COCc1cnc(C(=O)N2CCC3(CC(O)c4cc(-c5ccccc5C(C)C)ccc43)C2)cn1 (centres unmarked) [Example 69, (3-hydroxy-5-(2-isopropylphenyl)-2,3-dihydrospiro[indene-1,3′-pyrrolidine]-1′-yl)(5-(methoxymethyl)pyrazin-2-yl)ketone]"
11,< 25%,CC(C)c1ccccc1-c1ccc2c(c1)[C@@H](O)C[C@@]21CCN(C(=O)c2ccc(F)cn2)C1 [Example 28]
12,70 to 100%,"CC(C)c1ccccc1-c1ccc2c(c1)C(O)CC21CCN(C(=O)c2cccc(C3CC3)n2)C1 (centres unmarked) [Example 20, (6-cyclopropylpyridin-2-yl)(3-hydroxy-5-(2-isopropylphenyl)-2,3-dihydrospiro[indene-1,3′-pyrrolidine]-1′-yl) ketone]"
13,70 to 100%,"Cc1cnc(C(=O)N2CCC3(CC(O)c4cc(-c5ccccc5C(C)C)ccc43)C2)cn1 (centres unmarked) [Example 65, (3-hydroxy-5-(2-isopropylphenyl)-2,3-dihydrospiro[indene-1,3′-pyrrolidine]-1′-yl)(5-methylpyrazin-2-yl)ketone]"
14,70 to 100%,"CC(C)c1ccccc1-c1ccc2c(c1)[C@H](O)C[C@@]21CCN(C(=O)c2csc(Cl)n2)C1 [Example 33, (2-chlorothiazol-4-yl)((1S,3R)-3-hydroxy-5-(2-isopropylphenyl)-2,3-dihydrospiro[indene-1,3′-pyrrolidine]-1′-yl)ketone]"
15,70 to 100%,"CC(C)c1ccccc1-c1ccc2c(c1)C(O)CC21CCN(C(=O)c2ccccn2)C1 (centres unmarked) [Example 60, (3-hydroxy-5-(2-isopropylphenyl)-2,3-dihydrospiro[indene-1,3′-pyrrolidine]-1′-yl)(pyridin-2-yl)ketone]"
16,< 25%,"O=C(c1ccc(F)cn1)N1CCC2(C1)OB(O)c1ccccc12 (centres unmarked) [Example 8, (5-fluoropyridin-2-yl) (1-hydroxy-1H-spiro[benzo[c][1,2]oxaborolane-3,3′-pyrrolidine]-1′-yl) ketone]"
17,< 25%,"O=C(c1ccc(Cl)cn1)N1CCC2(CCC(O)c3cc(-c4ccccc4C4CC4)ccc32)C1 (centres unmarked) [Example 2, (5-chloropyridin-2-yl)(6-(2-cyclopropylphenyl)-4-hydroxy-3,4-dihydro-2H-spiro[naphthalene-1,3′-pyrrolidine]-1′-yl) ketone]"
18,< 25%,"CC(C)c1ccccc1-c1ccc2c(c1)CCC21CCN(C(=O)c2ccc(F)cn2)C1 (centres unmarked) [Example 120, (5-fluoropyridin-2-yl)(5-(2-isopropylphenyl)-2,3-dihydrospiro[indene-1,3′-pyrrolidine]-1′-yl) ketone]"
19,25 to 50%,"O=C(c1ccc(F)cn1)N1CCC2(CC(O)c3cc(-c4ccccc4)ccc32)C1 (centres unmarked) [Example 84, (5-fluoropyridin-2-yl)(3-hydroxy-5-phenyl-2,3-dihydrospiro[indene-1,3′-pyrrolidine]-1′-yl) ketone]"
20,70 to 100%,"CC(=O)c1cc(F)ccc1-c1ccc2c(c1)C(O)CC21CCN(C(=O)c2ccc(F)cn2)C1 (centres unmarked) [Example 95, 1-(5-fluoro-2-(1′-(5-fluoropyridoyl)-3-hydroxy-2,3-dihydrospiro[indene-1,3′-pyrrolidine]-5-yl)phenyl)ethan-1-one]"
21,50 to 70%,"O=C(c1ccc(F)cn1)N1CCC2(CC(O)c3cc(-c4ccccc4Cl)ccc32)C1 (centres unmarked) [Example 81, (5-(2-chlorophenyl)-3-hydroxy-2,3-dihydrospiro[indene-1,3′-pyrrolidine]-1′-yl)(5-fluoropyridin-2-yl) ketone]"
22,70 to 100%,"CC(C)c1ccccc1-c1ccc2c(c1)C(O)CC21CCN(C(=O)c2ccc(F)cn2)C1 (centres unmarked) [Example 16, (5-fluoropyridin-2-yl)(3-hydroxy-5-(2-isopropylphenyl)-2,3-dihydrospiro[indene-1,3′-pyrrolidine]-1′-yl) ketone]"
23,< 25%,"O=C(c1cccc(C2CC2)n1)N1CC[C@]2(C[C@@H](O)c3cc(-c4ccccc4C4CC4)ccc32)C1 [Example 38, ((1R,3R)-5-(2-cyclopropylphenyl)-3-hydroxy-2,3-dihydrospiro[indene-1,3′-pyrrolidine]-1′-yl)(6-cyclopropylpyridin-2-yl) ketone]"
